According to patent US20170190705A1, “Compositions and Methods for Inhibiting BMP” (THE BRIGHAM AND WOMAN'S HOSPITAL, INC., priority 2014, published 2017):
Where two headings read alike, the source gives them in different places.

How the values were obtained:
Format in all cases: biochemical
MAPKAPK3 = MAPKAPK3 (Homo sapiens, UniProt Q16644); assay: Kinome profiling MAPKAPK3; details: read-out: Inhibitory activity MAPKAPK3; for inhibition at 0.1 µM: 100 nM
Method: (§1) . The kinome-wide selectivity was determined following the methods previously reported by Mohedas et al., ACS Chem Biol 2013, 8, 1291-1302 and Sanvitale et al., PLoS One 2013, 8, e62721.

TIE2 = TIE2 (Homo sapiens, UniProt Q02763); assay: Kinome profiling TIE2; details: read-out: Inhibitory activity TIE2; for inhibition at 0.1 µM: 100 nM
Method: as §1

FLT-1 = FLT-1 (Homo sapiens, UniProt P17948); assay: Kinome profiling FLT-1; details: read-out: Inhibitory activity FLT-1; for inhibition at 0.1 µM: 100 nM
Method: as §1

CK1α = CK1α (Homo sapiens, UniProt P48729); assay: Kinome profiling CK1α; details: read-out: Inhibitory activity CK1α; for inhibition at 0.1 µM: 100 nM
Method: as §1

ARG (ABL2) = ARG (ABL2) (Homo sapiens, UniProt P42684); assay: Kinome profiling ARG (ABL2); details: for inhibition at 0.1 µM: 100 nM
Method: as §1

EPHB2 = target: T1, EPHB2 (Homo sapiens, UniProt P29323); assay: Kinome profiling EPHB2; details: read-out: Inhibitory activity EPHB2; for inhibition at 0.1 µM: 100 nM
T1 sequence (P29323 19-1055): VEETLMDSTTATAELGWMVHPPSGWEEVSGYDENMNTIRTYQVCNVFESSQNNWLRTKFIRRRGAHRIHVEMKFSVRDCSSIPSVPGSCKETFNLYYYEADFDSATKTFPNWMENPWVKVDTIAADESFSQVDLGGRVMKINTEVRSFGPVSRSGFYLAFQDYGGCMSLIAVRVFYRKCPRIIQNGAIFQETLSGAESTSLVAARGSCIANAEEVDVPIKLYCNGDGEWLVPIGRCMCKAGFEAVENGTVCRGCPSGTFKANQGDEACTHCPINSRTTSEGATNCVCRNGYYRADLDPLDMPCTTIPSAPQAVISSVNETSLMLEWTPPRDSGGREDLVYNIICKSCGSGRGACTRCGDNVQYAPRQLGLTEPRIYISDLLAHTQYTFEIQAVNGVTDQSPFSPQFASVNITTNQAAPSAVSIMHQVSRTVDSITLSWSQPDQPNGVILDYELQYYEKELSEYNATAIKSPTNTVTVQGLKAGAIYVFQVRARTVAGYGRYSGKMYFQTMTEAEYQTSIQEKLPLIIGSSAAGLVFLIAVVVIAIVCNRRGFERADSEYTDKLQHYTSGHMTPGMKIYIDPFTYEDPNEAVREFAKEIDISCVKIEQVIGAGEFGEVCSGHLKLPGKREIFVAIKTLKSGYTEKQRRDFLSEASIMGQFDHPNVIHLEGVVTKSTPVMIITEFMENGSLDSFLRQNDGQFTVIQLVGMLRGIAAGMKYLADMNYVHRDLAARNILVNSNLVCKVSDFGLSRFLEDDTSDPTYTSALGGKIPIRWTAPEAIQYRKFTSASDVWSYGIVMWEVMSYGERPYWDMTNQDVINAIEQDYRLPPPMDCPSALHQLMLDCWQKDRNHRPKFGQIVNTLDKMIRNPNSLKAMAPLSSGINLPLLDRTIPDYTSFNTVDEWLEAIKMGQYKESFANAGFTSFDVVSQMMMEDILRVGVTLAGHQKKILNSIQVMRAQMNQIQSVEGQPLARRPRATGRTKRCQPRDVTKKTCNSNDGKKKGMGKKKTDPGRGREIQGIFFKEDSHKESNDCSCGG
Method: as §1

DDR2 = target: T2, DDR2 (Homo sapiens, UniProt Q16832); assay: Kinome profiling DDR2; details: read-out: Inhibitory activity DDR2; for inhibition at 0.1 µM: 100 nM
T2 sequence (Q16832 22-855): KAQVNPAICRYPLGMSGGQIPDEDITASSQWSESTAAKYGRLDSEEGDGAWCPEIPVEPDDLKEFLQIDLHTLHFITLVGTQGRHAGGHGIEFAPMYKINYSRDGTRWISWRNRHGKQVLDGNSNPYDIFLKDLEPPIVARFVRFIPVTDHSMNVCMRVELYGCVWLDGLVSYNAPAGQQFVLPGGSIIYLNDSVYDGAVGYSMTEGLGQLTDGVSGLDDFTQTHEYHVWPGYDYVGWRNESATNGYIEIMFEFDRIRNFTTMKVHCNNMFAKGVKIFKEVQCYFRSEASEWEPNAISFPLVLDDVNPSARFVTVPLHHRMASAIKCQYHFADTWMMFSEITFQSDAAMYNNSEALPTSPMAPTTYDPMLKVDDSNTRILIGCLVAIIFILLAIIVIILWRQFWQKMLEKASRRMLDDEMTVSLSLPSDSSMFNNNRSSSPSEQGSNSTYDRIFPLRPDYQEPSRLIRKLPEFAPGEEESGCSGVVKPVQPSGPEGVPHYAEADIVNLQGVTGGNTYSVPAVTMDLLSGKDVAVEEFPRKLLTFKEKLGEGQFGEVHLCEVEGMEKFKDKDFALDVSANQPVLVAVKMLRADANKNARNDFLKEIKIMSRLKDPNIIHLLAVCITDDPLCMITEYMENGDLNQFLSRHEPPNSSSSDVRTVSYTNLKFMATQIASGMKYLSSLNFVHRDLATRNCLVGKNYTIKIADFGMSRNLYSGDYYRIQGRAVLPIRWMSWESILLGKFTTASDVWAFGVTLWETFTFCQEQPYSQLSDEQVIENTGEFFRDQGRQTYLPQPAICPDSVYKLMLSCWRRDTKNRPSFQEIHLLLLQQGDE
Method: as §1

FMS = FMS (Homo sapiens, UniProt P07333); assay: Kinome profiling FMS; details: read-out: Inhibitory activity FMS; for inhibition at 0.1 µM: 100 nM
Method: as §1

SRC = SRC (Homo sapiens, UniProt P12931); assay: Kinome profiling SRC; details: read-out: Inhibitory activity SRC; for inhibition at 0.1 µM: 100 nM
Method: as §1

PTK5 = PTK5 (Homo sapiens, UniProt P42685); assay: Kinome profiling PTK5; details: read-out: Inhibitory activity PTK5; for inhibition at 0.1 µM: 100 nM
Method: as §1

PAK2 = PAK2 (Homo sapiens, UniProt Q13177); assay: Kinome profiling PAK2; details: read-out: Inhibitory activity PAK2; for inhibition at 0.1 µM: 100 nM
Method: as §1

[1] = Table 4, read-out: Inhibitory Activity ARG
[2] = read-out: Inhibitory activity ARG (ABL2)

Sequence of SRC (P12931 whole entry): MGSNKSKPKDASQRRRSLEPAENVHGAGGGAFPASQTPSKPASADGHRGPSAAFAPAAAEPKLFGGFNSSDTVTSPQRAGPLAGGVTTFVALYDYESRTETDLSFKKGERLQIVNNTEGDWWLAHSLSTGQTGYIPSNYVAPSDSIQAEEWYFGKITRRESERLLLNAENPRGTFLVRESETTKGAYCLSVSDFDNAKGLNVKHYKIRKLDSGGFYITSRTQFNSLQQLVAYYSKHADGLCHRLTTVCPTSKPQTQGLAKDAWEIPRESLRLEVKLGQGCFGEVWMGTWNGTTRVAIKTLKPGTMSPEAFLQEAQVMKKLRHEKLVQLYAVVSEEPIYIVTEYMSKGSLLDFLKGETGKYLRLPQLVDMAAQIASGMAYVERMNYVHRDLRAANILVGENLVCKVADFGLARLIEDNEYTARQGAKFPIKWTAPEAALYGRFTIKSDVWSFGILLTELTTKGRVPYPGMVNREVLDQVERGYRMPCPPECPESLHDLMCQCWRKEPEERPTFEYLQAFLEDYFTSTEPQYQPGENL
Sequence of PTK5 (P42685 whole entry): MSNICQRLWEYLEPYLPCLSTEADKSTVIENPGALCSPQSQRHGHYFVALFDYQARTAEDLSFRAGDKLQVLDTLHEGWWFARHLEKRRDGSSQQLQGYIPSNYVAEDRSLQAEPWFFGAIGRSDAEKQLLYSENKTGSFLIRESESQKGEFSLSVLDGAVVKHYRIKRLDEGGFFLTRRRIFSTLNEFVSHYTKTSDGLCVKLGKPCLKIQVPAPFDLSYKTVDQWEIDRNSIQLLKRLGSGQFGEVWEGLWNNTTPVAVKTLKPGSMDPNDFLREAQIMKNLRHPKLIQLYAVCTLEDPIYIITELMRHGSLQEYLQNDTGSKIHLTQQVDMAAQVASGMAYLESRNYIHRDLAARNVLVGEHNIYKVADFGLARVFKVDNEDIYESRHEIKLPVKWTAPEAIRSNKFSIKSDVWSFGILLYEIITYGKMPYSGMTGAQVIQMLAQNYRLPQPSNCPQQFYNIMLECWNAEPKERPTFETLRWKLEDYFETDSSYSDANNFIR
Sequence of ARG (ABL2) (P42684 whole entry): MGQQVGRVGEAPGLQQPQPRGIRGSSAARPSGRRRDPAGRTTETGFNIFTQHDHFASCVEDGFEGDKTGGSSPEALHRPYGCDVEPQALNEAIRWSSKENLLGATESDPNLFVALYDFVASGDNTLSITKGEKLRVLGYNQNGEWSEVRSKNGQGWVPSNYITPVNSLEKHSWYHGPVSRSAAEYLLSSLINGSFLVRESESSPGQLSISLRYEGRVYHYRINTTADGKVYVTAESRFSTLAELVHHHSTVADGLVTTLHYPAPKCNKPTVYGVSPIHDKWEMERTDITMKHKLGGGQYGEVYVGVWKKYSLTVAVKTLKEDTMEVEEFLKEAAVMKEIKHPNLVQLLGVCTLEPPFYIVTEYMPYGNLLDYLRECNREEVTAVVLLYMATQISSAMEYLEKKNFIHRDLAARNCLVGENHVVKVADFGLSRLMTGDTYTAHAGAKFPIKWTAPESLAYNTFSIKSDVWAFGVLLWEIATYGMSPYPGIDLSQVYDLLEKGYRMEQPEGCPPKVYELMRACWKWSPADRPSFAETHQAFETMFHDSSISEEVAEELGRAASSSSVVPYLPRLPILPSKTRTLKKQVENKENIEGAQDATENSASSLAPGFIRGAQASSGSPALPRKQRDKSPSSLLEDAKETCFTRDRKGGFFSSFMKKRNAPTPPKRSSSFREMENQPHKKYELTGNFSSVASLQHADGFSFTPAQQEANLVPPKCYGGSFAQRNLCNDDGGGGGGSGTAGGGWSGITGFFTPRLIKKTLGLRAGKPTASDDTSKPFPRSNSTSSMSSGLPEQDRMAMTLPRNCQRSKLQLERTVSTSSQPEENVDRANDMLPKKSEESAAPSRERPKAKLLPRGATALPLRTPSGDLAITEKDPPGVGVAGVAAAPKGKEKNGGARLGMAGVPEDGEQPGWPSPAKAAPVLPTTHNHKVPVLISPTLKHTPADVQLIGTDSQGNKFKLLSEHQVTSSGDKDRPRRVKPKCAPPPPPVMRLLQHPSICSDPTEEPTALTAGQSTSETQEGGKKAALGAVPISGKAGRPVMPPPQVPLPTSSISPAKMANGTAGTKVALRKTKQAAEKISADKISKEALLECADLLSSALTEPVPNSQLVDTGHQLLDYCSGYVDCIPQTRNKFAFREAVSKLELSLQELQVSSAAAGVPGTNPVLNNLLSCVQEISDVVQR
Sequence of CK1α (P48729 whole entry): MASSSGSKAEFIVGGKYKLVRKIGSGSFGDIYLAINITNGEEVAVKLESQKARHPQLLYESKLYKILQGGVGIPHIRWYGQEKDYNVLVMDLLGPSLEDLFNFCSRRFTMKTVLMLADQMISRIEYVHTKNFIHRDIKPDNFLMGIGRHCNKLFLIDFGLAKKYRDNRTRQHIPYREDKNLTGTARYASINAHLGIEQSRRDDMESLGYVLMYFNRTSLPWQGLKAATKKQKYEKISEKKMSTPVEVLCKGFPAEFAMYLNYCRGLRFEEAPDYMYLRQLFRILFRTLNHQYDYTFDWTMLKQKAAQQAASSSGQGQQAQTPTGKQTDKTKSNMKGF
Sequence of TIE2 (Q02763 23-1124): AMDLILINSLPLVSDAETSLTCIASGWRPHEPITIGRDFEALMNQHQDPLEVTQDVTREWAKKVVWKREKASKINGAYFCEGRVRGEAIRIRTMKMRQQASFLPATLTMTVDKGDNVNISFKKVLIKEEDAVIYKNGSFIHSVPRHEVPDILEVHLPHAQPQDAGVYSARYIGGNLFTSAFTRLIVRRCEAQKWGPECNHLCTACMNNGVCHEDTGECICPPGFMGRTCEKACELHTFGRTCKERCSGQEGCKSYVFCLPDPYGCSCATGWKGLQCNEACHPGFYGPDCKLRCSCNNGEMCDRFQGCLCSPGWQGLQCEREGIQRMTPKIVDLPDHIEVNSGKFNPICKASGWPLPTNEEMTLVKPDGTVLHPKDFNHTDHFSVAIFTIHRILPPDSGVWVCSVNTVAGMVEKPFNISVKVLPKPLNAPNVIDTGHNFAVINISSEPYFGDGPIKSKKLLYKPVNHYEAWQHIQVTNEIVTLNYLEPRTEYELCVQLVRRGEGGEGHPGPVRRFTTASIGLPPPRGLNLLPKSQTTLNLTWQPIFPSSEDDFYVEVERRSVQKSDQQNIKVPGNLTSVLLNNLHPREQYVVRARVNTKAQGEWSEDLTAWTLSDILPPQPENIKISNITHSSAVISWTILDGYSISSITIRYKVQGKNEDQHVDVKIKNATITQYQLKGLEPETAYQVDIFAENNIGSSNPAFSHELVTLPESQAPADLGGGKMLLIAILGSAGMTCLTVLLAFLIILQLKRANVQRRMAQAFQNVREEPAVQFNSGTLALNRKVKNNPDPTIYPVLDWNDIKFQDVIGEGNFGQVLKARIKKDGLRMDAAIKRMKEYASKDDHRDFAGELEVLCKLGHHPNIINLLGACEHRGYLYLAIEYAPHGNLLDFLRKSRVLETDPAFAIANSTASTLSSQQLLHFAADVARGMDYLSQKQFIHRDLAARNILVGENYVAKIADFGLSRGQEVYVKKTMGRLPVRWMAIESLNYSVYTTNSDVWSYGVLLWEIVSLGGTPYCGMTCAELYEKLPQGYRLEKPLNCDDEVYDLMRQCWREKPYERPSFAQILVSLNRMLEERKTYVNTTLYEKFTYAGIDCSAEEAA
Sequence of MAPKAPK3 (Q16644 whole entry): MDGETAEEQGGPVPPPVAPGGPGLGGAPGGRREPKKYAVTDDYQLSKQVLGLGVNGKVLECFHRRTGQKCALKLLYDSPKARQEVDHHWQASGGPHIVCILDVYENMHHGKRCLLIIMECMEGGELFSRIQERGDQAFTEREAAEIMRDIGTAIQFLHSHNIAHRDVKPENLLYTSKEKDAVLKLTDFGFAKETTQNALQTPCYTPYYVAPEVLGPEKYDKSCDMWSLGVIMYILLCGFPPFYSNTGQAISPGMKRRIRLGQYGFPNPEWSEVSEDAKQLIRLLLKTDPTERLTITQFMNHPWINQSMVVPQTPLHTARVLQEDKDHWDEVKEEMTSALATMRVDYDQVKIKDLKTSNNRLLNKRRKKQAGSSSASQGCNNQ
Sequence of PAK2 (Q13177 whole entry): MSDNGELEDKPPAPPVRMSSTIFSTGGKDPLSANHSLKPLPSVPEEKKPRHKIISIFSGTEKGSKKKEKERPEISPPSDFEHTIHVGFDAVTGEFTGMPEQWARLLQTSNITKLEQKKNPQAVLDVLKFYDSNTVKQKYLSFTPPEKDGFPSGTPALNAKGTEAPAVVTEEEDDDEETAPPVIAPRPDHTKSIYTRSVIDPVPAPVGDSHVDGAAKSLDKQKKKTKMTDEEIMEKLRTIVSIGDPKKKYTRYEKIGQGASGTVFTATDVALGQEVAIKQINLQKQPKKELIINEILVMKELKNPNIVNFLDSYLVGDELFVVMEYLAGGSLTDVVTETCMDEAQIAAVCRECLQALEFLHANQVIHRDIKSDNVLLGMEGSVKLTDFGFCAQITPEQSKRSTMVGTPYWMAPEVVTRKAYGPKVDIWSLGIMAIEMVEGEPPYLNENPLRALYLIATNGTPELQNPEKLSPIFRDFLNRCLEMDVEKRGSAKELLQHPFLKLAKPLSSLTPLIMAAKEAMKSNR

| SMILES | inhibition at 0.1 µM (MAPKAPK3) [%] | inhibition at 1 µM (MAPKAPK3) [%] | inhibition at 0.1 µM (TIE2) [%] | inhibition at 1 µM (TIE2) [%] | inhibition at 0.1 µM (FLT-1) [%] | inhibition at 1 µM (FLT-1) [%] | inhibition at 0.1 µM (CK1α) [%] | inhibition at 1 µM (CK1α) [%] | inhibition at 0.1 µM (ARG (ABL2); [2]) [%] | inhibition at 1 µM (ARG (ABL2); [2]) [%] | inhibition at 0.1 µM (EPHB2) [%] | inhibition at 1 µM (EPHB2) [%] | inhibition at 0.1 µM (DDR2) [%] | inhibition at 1 µM (DDR2) [%] | inhibition at 0.1 µM (FMS) [%] | inhibition at 1 µM (FMS) [%] | inhibition at 0.1 µM (SRC) [%] | inhibition at 1 µM (SRC) [%] | inhibition at 0.1 µM (PTK5) [%] | inhibition at 1 µM (PTK5) [%] | further results |
| --- | --- | --- | --- | --- | --- | --- | --- | --- | --- | --- | --- | --- | --- | --- | --- | --- | --- | --- | --- | --- | --- |
| COc1cc(-c2cc(-c3ccc(N4CCNCC4)cc3)cnc2C)cc(OC)c1OC [Compound 10, 1-(4-(6-methyl-5-(3,4,5-trimethoxyphenyl)pyridin-3-yl)phenyl)piperazine] | -1 | 0 | 1 | 0 | 8 | 16 | 2 | 7 | 17 | 62 | 5 | 15 | -1 | 20 | 5 | 33 | 8 | 23 | 1 | 11 | inhibition at 0.1 µM (ARG (ABL2); [1]): 17%; inhibition at 1 µM (ARG (ABL2); [1]): 62%; inhibition at 0.1 µM (PAK2): 0%; inhibition at 1 µM (PAK2): 1% |
| COc1cc(-c2cc(-c3ccc(N4CCNCC4)cc3)cnc2N)cc(OC)c1OC [Compound 15, 5-(4-(piperazin-1-yl)phenyl)-3-(3,4,5-trimethoxyphenyl)pyridin-2-amine] | 1 | 1 | 1 | 6 | 3 | 5 | 5 | 18 | 60 | 81 | 22 | 70 | 32 | 86 | 23 | 65 | 40 | 81 | 17 | 66 | inhibition at 0.1 µM (PAK2): 0%; inhibition at 1 µM (PAK2): 1% |
